Columns and labels:
Assay type in all cases: in vivo
[1] = system: ryegrass, Italian (italian ryegrass, Lolium multiflorum); assay: Test A preemergence soil spray, visual injury rating 0-100; conditions: 10 days
Outline: (§1)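 Rating: visual, day 10, untreated plants as reference, 0 no effect to 100 full control. Plants were in loam-sand and were treated either preemergence via directed soil spray or postemergence at the one- to two-leaf stage.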

[2] = system: corn (Zea mays); assay: as above; conditions: 10 days
Outline: as §1

[3] = system: wheat (Triticum aestivum); assay: as above; conditions: 10 days
Outline: as §1

[4] = system: barnyardgrass (Echinochloa crus-galli); assay: as above; conditions: 10 days
Outline: as §1

[5] = system: green foxtail (Setaria viridis); assay: as above; conditions: 10 days
Outline: as §1

[6] = system: blackgrass (Alopecurus myosuroides); assay: as above; conditions: 10 days
Outline: as §1

[7] = system: soybean (Glycine max); assay: as above; conditions: 10 days
Outline: as §1

[8] = system: oat, wild (wild oat, Avena fatua); assay: as above; conditions: 10 days
Outline: as §1

[9] = system: palmer (palmer amaranth, palmer pigweed, Amaranthus palmeri); assay: as above; conditions: 10 days
Outline: as §1

[10] = system: ragweed (common ragweed, Ambrosia artemisiifolia); assay: as above; conditions: 10 days
Outline: as §1

[11] = system: kochia (Bassia scoparia); assay: as above; conditions: 10 days
Outline: as §1

[12] = system: barnyardgrass (Echinochloa crusgalli); assay: Test B flooded paddy test, visual plant response rating 0-100; conditions: 250 g ai/ha, Flood, applied to paddy water, evaluated after 13 days
Outline: (§2)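 Visual evaluation after 13 days. Water-applied treatment, 3 cm flood depth held constant, plants at 2-leaf stage at treatment.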

[13] = system: ducksalad (Heteranthera limosa); assay: as above; conditions: 250 g ai/ha, Flood, applied to paddy water, evaluated after 13 days
Outline: as §2

[14] = system: rice (Oryza sativa); assay: as above; conditions: 250 g ai/ha, Flood, applied to paddy water, evaluated after 13 days
Outline: as §2

[15] = system: sedge, umbrella (small-flower umbrella sedge, Cyperus difformis); assay: as above; conditions: 250 g ai/ha, Flood, applied to paddy water, evaluated after 13 days
Outline: as §2

[16] = system: ryegrass, Italian (italian ryegrass, Lolium multiflorum); assay: Test A postemergence application, visual injury rating 0-100
Outline: as §1

[17] = system: corn (Zea mays); assay: as above
Outline: as §1

[18] = system: wheat (Triticum aestivum); assay: as above
Outline: as §1

[19] = system: horseweed (Erigeron canadensis); assay: as above
Outline: as §1

[20] = system: barnyardgrass (Echinochloa crus-galli); assay: as above
Outline: as §1

[21] = system: galium (catchweed bedstraw, Galium aparine); assay: as above
Outline: as §1

[22] = system: green foxtail (Setaria viridis); assay: as above
Outline: as §1

[23] = system: blackgrass (Alopecurus myosuroides); assay: as above
Outline: as §1

[24] = system: soybean (Glycine max); assay: as above
Outline: as §1

[25] = system: oat, wild (wild oat, Avena fatua); assay: as above
Outline: as §1

[26] = system: palmer (palmer amaranth, palmer pigweed, Amaranthus palmeri); assay: as above
Outline: as §1

[27] = system: ragweed (common ragweed, Ambrosia artemisiifolia); assay: as above
Outline: as §1

[28] = system: kochia (Bassia scoparia); assay: as above
Outline: as §1

[29] = 62 g ai/ha, 0 = no effect, 100 = complete control
[30] = 62 g ai/ha, postemergence, 10 days, 0 = no effect, 100 = complete control
[31] = Postemergence, 16 g ai/ha, greenhouse 10 days, 0 no effect, 100 complete control

With `COC(=O)C1C=CC(NC(=O)C2(C)CN(c3cc(F)cc(F)c3)C(=O)O2)C1` (stereo not shown) [Compound 89] the “Ryegrass, Italian plant response rating” value ([1]; 16 g ai/ha, 0 to 100 scale) was 80, the “Ryegrass, Italian plant response rating (0-100)” value [1, 29] was 90 and the “Corn plant response rating” value ([2]; 16 g ai/ha, 0 to 100 scale) was 30. For the same molecule, the “Corn plant response rating (0-100)” value [2, 29] was 100, the “Wheat plant response rating” value ([3]; 16 g ai/ha, 0 to 100 scale) was 90 and the “Wheat plant response rating (0-100)” value [3, 29] was 90. For the same molecule, the “Barnyardgrass plant response rating” value ([4]; 16 g ai/ha, 0 to 100 scale) was 70, the “Barnyardgrass plant response rating (0-100)” value [4, 29] was 100 and the “Foxtail, Green plant response rating” value ([5]; 16 g ai/ha, 0 to 100 scale) was 10. The “Foxtail, Green plant response rating (0-100)” value [5, 29] was 100, the “Blackgrass plant response rating” value ([6]; 16 g ai/ha, 0 to 100 scale) was 30 and the “Blackgrass plant response rating (0-100)” value [6, 29] was 70. For the same molecule, the “Soybean plant response rating” value ([7]; 16 g ai/ha, 0 to 100 scale) was 40, the “Soybean plant response rating (0-100)” value [7, 29] was 80 and the “Oat, Wild plant response rating” value ([8]; 16 g ai/ha, 0 to 100 scale) was 80. The “Oat, Wild plant response rating (0-100)” value [8, 29] was 90, the “Pigweed, Palmer plant response rating” value ([9]; 16 g ai/ha, 0 to 100 scale) was 80 and the “Pigweed, Palmer plant response rating (0-100)” value [9, 29] was 100. For the same molecule, the “Ragweed plant response rating” value ([10]; 16 g ai/ha, 0 to 100 scale) was 0, the “Ragweed plant response rating (0-100)” value [10, 29] was 30 and the “Kochia plant response rating” value ([11]; 16 g ai/ha, 0 to 100 scale) was 90. For the same molecule, the “Kochia plant response rating (0-100)” value [11, 29] was 100, the “Plant response rating, Barnyardgrass (0 to 100 scale, 0 is no effect and 100 is complete control)” value [12] was 95 and the “Plant response rating, Ducksalad (0 to 100 scale, 0 is no effect and 100 is complete control)” value [13] was 70. The “Plant response rating, Rice (0 to 100 scale, 0 is no effect and 100 is complete control)” value [14] was 25, the “Plant response rating, Sedge, Umbrella (0 to 100 scale, 0 is no effect and 100 is complete control)” value [15] was 95 and the “Ryegrass, Italian plant response rating (0-100)” value [16, 30] was 90. For the same molecule, the “Ryegrass, Italian plant response rating (0 to 100 scale)” value [16, 31] was 90, the “Corn plant response rating (0-100)” value [17, 30] was 100 and the “Corn plant response rating (0 to 100 scale)” value [17, 31] was 90. For the same molecule, the “Wheat plant response rating (0-100)” value [18, 30] was 90, the “Wheat plant response rating (0 to 100 scale)” value [18, 31] was 90 and the “Horseweed plant response rating (0-100)” value [19, 30] was 80. For the same molecule, the “Horseweed plant response rating (0 to 100 scale)” value [19, 31] was 20, the “Barnyardgrass plant response rating (0-100)” value [20, 30] was 100 and the “Barnyardgrass plant response rating (0 to 100 scale)” value [20, 31] was 90. The “Galium plant response rating (0-100)” value [21, 30] was 100, the “Galium plant response rating (0 to 100 scale)” value [21, 31] was 100 and the “Foxtail, Green plant response rating (0-100)” value [22, 30] was 90. For the same molecule, the “Foxtail, Green plant response rating (0 to 100 scale)” value [22, 31] was 60, the “Blackgrass plant response rating (0-100)” value [23, 30] was 90 and the “Blackgrass plant response rating (0 to 100 scale)” value [23, 31] was 90. For the same molecule, the “Soybean plant response rating (0-100)” value [24, 30] was 50, the “Soybean plant response rating (0 to 100 scale)” value [24, 31] was 50 and the “Oat, Wild plant response rating (0-100)” value [25, 30] was 90. The “Oat, Wild plant response rating (0 to 100 scale)” value [25, 31] was 90, the “Pigweed, Palmer plant response rating (0-100)” value [26, 30] was 90 and the “Pigweed, Palmer plant response rating (0 to 100 scale)” value [26, 31] was 70. The “Ragweed plant response rating (0-100)” value [27, 30] was 70, the “Ragweed plant response rating (0 to 100 scale)” value [27, 31] was 50 and the “Kochia plant response rating (0-100)” value [28, 30] was 90. For the same molecule, the “Kochia plant response rating (0 to 100 scale)” value [28, 31] was 80.

— US20260285850A1, “SUBSTITUTED OXAZOLIDINONES AND IMIDAZOLINONES AS HERBICIDES” (FMC CORPORATION, priority 2023, published 2026)
